Data: patent US7078418B1, “1-aziridino-1-hydroxyiminomethyl-derivates, method for the production thereof and medicaments containing said compounds” (priority 1999, dated 2006)
≈ marks a conversion by molar mass, not a printed value.

How the values were obtained:
HT29 = test: monolayer cytotoxicity test (modified propidium iodide assay), HT29; type: cell-based; conditions: for IC50 antitumoral activity: Colon
Excerpt: (§1) The compounds pursuant to the invention with the general formula I show antitumoral activity. The antitumoral activities of some compounds pursuant to the invention in the monolayer cytotoxicity test on selected cell lines are shown in Table 1. The low susceptibility of fibroblasts and endothelial cells with the use of the compounds pursuant to the invention is surprising.

401 NL = test: monolayer cytotoxicity test (modified propidium iodide assay), 401 NL; type: cell-based; conditions: Breast
Excerpt: as §1

944 LL = test: monolayer cytotoxicity test (modified propidium iodide assay), 944 LL; type: cell-based; conditions: Kidney
Excerpt: as §1

LXFL 529 = test: monolayer cytotoxicity test (modified propidium iodide assay), LXFL 529; type: cell-based; conditions: Lung
Excerpt: as §1

1138 L = test: monolayer cytotoxicity test (modified propidium iodide assay), 1138 L; type: cell-based; conditions: Uterus
Excerpt: as §1

GXF 251L = test: monolayer cytotoxicity test (modified propidium iodide assay), GXF 251L; type: cell-based; conditions: Stomach
Excerpt: as §1

[1] = tested on: 12 tumor cell lines (Table 3); test: cells; conditions: read-out: mean IC50
[2] = tested on: 12 tumor cell lines (Table 3); conditions: mean over 12 cell lines of Table 3
[3] = read-out: IC50 antitumoral activity

| IC50 [1] | SMILES | IC50 antitumoral activity (HT29) | IC50 antitumoral activity (401 NL) | IC50 antitumoral activity (944 LL) | IC50 antitumoral activity (LXFL 529) | IC50 antitumoral activity (1138 L) | IC50 antitumoral activity (GXF 251L) | IC50 (HT29; Homo sapiens, HT-29, Colon, read-out: IC50 antitumoral activity) | IC50 (401 NL; [3]) | IC50 (944 LL; [3]) | IC50 (LXFL 529; Homo sapiens, read-out: IC50 antitumoral activity) | IC50 (1138 L; [3]) | IC50 (GXF 251L; [3]) | mean IC50 [2] |
| --- | --- | --- | --- | --- | --- | --- | --- | --- | --- | --- | --- | --- | --- | --- |
| – | ON=C(c1ccc(C(=NO)N2CC2)nc1)N1CC1 [Compound 14, 2,5-Bis(1-aziridino-1-hydroxyiminomethyl)pyridine] | 0.200 µg/mL (≈ 0.809 µM) | 0.011 µg/mL (≈ 0.0445 µM) | 0.198 µg/mL (≈ 0.801 µM) | 0.006 µg/mL (≈ 0.0243 µM) | 0.034 µg/mL (≈ 0.138 µM) | 0.717 µg/mL (≈ 2.9 µM) | – | – | – | – | – | – | – |
| 0.054 µg/mL (≈ 0.415 µM) | O=c1[nH]cc(F)c(=O)[nH]1 [Compound 5FU, 5-fluorouracil] | – | – | – | – | – | – | – | – | – | – | – | – | – |
| – | ON=C(c1ccc(C(=NO)N2CC2)cc1)N1CC1 [Compound 7, 1,4-Bis(1-aziridino-1-hydroxyiminomethyl)benzene] | 0.258 µg/mL (≈ 1.05 µM) | 0.018 µg/mL (≈ 0.0731 µM) | 0.348 µg/mL (≈ 1.41 µM) | 0.038 µg/mL (≈ 0.154 µM) | 0.038 µg/mL (≈ 0.154 µM) | 0.542 µg/mL (≈ 2.2 µM) | – | – | – | – | – | – | – |
| – | O/N=C(/C(=N/O)N1CC1)N1CC1 [Compound 1, 1,1′-[1,2-bis(hydroxyimino)-1,2-ethanediyl]bisaziridine] | – | – | – | – | – | – | 0.486 µg/mL (≈ 2.86 µM) | 0.04 µg/mL (≈ 0.235 µM) | 0.923 µg/mL (≈ 5.42 µM) | 0.441 µg/mL (≈ 2.59 µM) | 0.173 µg/mL (≈ 1.02 µM) | 0.781 µg/mL (≈ 4.59 µM) | – |
| – | ON=C(c1ccc(C(=NO)N2CC2)o1)N1CC1 [Compound 16, 2,5-Bis(1-aziridino-1-hydroxyiminomethyl)furan] | 0.481 µg/mL (≈ 2.04 µM) | 0.039 µg/mL (≈ 0.165 µM) | 1.359 µg/mL (≈ 5.75 µM) | 0.099 µg/mL (≈ 0.419 µM) | 0.073 µg/mL (≈ 0.309 µM) | 1.661 µg/mL (≈ 7.03 µM) | – | – | – | – | – | – | – |
| – | ON=C(c1cccc(C(=NO)N2CC2)c1)N1CC1 [Compound 9, 1,3-Bis(1-aziridino-1-hydroxyiminomethyl)benzene] | 0.329 µg/mL (≈ 1.34 µM) | 0.060 µg/mL (≈ 0.244 µM) | 0.788 µg/mL (≈ 3.2 µM) | 0.063 µg/mL (≈ 0.256 µM) | 0.066 µg/mL (≈ 0.268 µM) | 1.506 µg/mL (≈ 6.12 µM) | – | – | – | – | – | – | – |
| – | ON=C(c1cccc(C(=NO)N2CC2)n1)N1CC1 [Compound 6, 2,6-Bis(1-aziridino-1-hydroxyiminomethyl)pyridine] | 0.117 µg/mL (≈ 0.473 µM) | 0.207 µg/mL (≈ 0.837 µM) | 0.115 µg/mL (≈ 0.465 µM) | 0.027 µg/mL (≈ 0.109 µM) | 0.014 µg/mL (≈ 0.0566 µM) | 0.020 µg/mL (≈ 0.0809 µM) | – | – | – | – | – | – | 0.030 µg/mL |
| – | ON=C(c1cc(C(=NO)N2CC2)cc(C(=NO)N2CC2)c1)N1CC1 [Compound 10, 1,3,5-Tris(1-aziridino-1-hydroxyiminomethyl)benzene] | 0.670 µg/mL (≈ 2.03 µM) | 0.043 µg/mL (≈ 0.13 µM) | 0.750 µg/mL (≈ 2.27 µM) | 0.100 µg/mL (≈ 0.303 µM) | 0.111 µg/mL (≈ 0.336 µM) | 3.964 µg/mL (≈ 12 µM) | – | – | – | – | – | – | – |
